Legend:
SCC25 cells = experiment: EdU cell growth assay
Description: (§1) EdU cell growth assay. Click-iT EdU Alexa Fluor high-throughput imaging (HCS) assay for cell proliferation. HCS assays were performed on AT84 mouse squamous carcinoma cell line (ATCC) following the manufacturer's instruction (Molecular Probes, Invitrogen). […] All samples were in triplicate.

MDA-MB-435 = experiment: NCI 60 cell panel
KM12 = experiment: NCI 60 cell panel
HOP-92 = experiment: NCI 60 cell panel
SF-539 = experiment: NCI 60 cell panel
SCC4 cells = experiment: EdU cell growth assay
Description: as §1

HS 578T = experiment: NCI 60 cell panel
SF-268 = experiment: NCI 60 cell panel
U251 = experiment: NCI 60 cell panel
OVCAR-8 = experiment: NCI 60 cell panel
IGROVI = experiment: NCI 60 cell panel
RXF 393 = experiment: NCI 60 cell panel
786-0 = experiment: NCI 60 cell panel
SNB-19 = experiment: NCI 60 cell panel
BT-549 = experiment: NCI 60 cell panel
MALME-3M = experiment: NCI 60 cell panel
SK-MEL-28 = experiment: NCI 60 cell panel
SF-295 = experiment: NCI 60 cell panel

CCC(CC)(c1ccc(OCC(=O)NO)c(C)c1)c1ccc(OCC(O)C(C)(C)C)c(C)c1 (racemic) [JF-B01, N-Hydroxy-2-(4-(3-(4-(2-hydroxy-3,3-dimethylbutoxy)-3-methylphenyl)pentan-3-yl)-2-methylphenoxy)acetamide]
antiproliferative potency, fold less potent than 1,25D (SCC25 cells): 10 fold
EdU incorporation at higher concentrations (SCC25 cells; higher concentrations): completely abolished EdU incorporation
GI50 (MDA-MB-435; Homo sapiens, MDA-MB-435): 2.08 µM
CC50 (MDA-MB-435; Homo sapiens, MDA-MB-435, read-out: LC50): 16.7 µM
TGI (MDA-MB-435; Melanoma, MDA-MB-435): 5.20E-6
TGI (KM12; Colon Cancer, KM12): 8.17E-6
GI50 (KM12; Homo sapiens, KM12): 2.15 µM
CC50 (KM12; Homo sapiens, KM12, read-out: LC50): 28.8 µM
GI50 (HOP-92; Homo sapiens, HOP-92): 3.08 µM
CC50 (HOP-92; Homo sapiens, HOP-92, read-out: LC50): 49.2 µM
TGI (HOP-92; Non-Small Cell Lung Cancer, HOP-92): 1.53E-5
TGI (SF-539; CNS Cancer, SF-539): 2.74E-5
GI50 (SF-539; Homo sapiens, SF-539): 13.7 µM
CC50 (SF-539; Homo sapiens, SF-539, read-out: LC50): 54.9 µM
inhibition of proliferation, EdU incorporation (SCC4 cells; 1,25D-resistant SCC4 cells, Fig. 2e, f): completely
EdU incorporation at higher concentrations (SCC4 cells; SCC4 cells, higher concentrations): completely abolished EdU incorporation
TGI (HS 578T; Breast Cancer, HS 578T): 2.65E-5
GI50 (HS 578T; Homo sapiens, Hs-578T): 8.8 µM
CC50 (HS 578T; Homo sapiens, Hs-578T, read-out: LC50): 72.5 µM
TGI (SF-268; CNS Cancer, SF-268): 1.06E-5
GI50 (SF-268; Homo sapiens, SF-268): 2.26 µM
CC50 (SF-268; Homo sapiens, SF-268, read-out: LC50): 34.6 µM
TGI (U251; CNS Cancer, U251): 1.23E-5
GI50 (U251; Homo sapiens, U-251): 2.34 µM
CC50 (U251; Homo sapiens, U-251, read-out: LC50): 40 µM
GI50 (OVCAR-8; Homo sapiens, OVCAR-8): 6.27 µM
CC50 (OVCAR-8; Homo sapiens, OVCAR-8, read-out: LC50): 51.1 µM
TGI (OVCAR-8; Ovarian Cancer, OVCAR-8): 2.03E-5
GI50 (IGROVI; Homo sapiens): 2.08 µM
CC50 (IGROVI; Homo sapiens, read-out: LC50): 19.2 µM
TGI (IGROVI; Ovarian Cancer, IGROVI): 5.25E-6
GI50 (RXF 393; Homo sapiens, RXF 393): 5.34 µM
CC50 (RXF 393; Homo sapiens, RXF 393, read-out: LC50): 47.5 µM
TGI (RXF 393; Renal Cancer, RXF 393): 1.91E-5
GI50 (786-0; Homo sapiens, 786-0): 11.3 µM
CC50 (786-0; Homo sapiens, 786-0, read-out: LC50): 51.3 µM
TGI (786-0; Renal Cancer, 786-0): 2.41E-5
TGI (SNB-19; CNS Cancer, SNB-19): 1.12E-5
GI50 (SNB-19; Homo sapiens, SNB-19): 2.41 µM
CC50 (SNB-19; Homo sapiens, SNB-19, read-out: LC50): 33.5 µM
TGI (BT-549; Breast Cancer, BT-549): 7.74E-6
GI50 (BT-549; Homo sapiens, BT-549): 2.03 µM
CC50 (BT-549; Homo sapiens, BT-549, read-out: LC50): 28.5 µM
GI50 (MALME-3M; Homo sapiens, Malme-3M): 2.33 µM
CC50 (MALME-3M; Homo sapiens, Malme-3M, read-out: LC50): 35.7 µM
TGI (MALME-3M; Melanoma, MALME-3M): 1.07E-5
GI50 (SK-MEL-28; Homo sapiens, SK-MEL-28): 4.75 µM
CC50 (SK-MEL-28; Homo sapiens, SK-MEL-28, read-out: LC50): 42.5 µM
TGI (SK-MEL-28; Melanoma, SK-MEL-28): 1.75E-5
TGI (SF-295; CNS Cancer, SF-295): 2.02E-5
GI50 (SF-295; Homo sapiens, SF-295): 7.61 µM
CC50 (SF-295; Homo sapiens, SF-295, read-out: LC50): 44.9 µM

Source: patent EP2794556B1, “BIS-(ARYL/HETEROARYL)-METHYLENE COMPOUNDS, PHARMACEUTICAL COMPOSITIONS CONTAINING SAME AND THEIR USE FOR TREATING CANCER” (Gleason, James L., priority 2011, dated 2013)
